Source: patent US11214594B2, “Antimicrobial peptide having synergistic antibacterial effect with antibiotics on multidrug resistant bacteria, and use thereof” (priority 2016, dated 2022)
Values after ≈ are worked out from the molar mass of the structure shown. Where two headings read alike, the source gives them in different places. Where a SMILES comes first, the peptide text is derived from it. [ ]: non-standard residue; d: D form.

Assays:
MDRAB 12035 [1] = test: microbe, parasite or virus in culture; type: cell-based, Acinetobacter baumannii
Outline: (§1)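 Peptides were serially diluted twofold in Mueller-Hinton medium and combined 1:1 with bacterial suspensions prepared at 2×10^6 CFU. Readout was the minimal inhibitory concentration, i.e. the lowest concentration with no growth.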

A. baumannii [2] = test: microbe, parasite or virus in culture; type: cell-based, Acinetobacter baumannii
Outline: as §1

S. epidermidis = test: microbe, parasite or virus in culture; type: cell-based, Staphylococcus epidermidis
Outline: as §1

B. subtilis = test: microbe, parasite or virus in culture; type: cell-based, Bacillus subtilis
Outline: as §1

A. baumannii [3] = test: MIC of antibiotic during combined treatment with antimicrobial peptide; type: cell-based, Acinetobacter baumannii; conditions: for Antibiotic MIC, Erythromycin / Antibiotic MIC, Linezolid / Antibiotic MIC, Vancomycin: A. baumannii
Outline: (§2)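 Antibiotic diluted in MH medium, dispensed per well with peptide; setup repeated with roles reversed; MIC read per combination.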

MDRST 8009 = type: cell-based, Salmonella typhimurium; conditions: agent alone
Outline: as §1

MDREC 1229 [4] = type: cell-based, Escherichia coli
Outline: (§3)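 Antibiotic MIC came from antibiotic dilutions added to bacteria (2×10^6 CFU/ml, MH medium) already combined with peptide serially diluted 2:1 from its own MIC. Swapping the roles of the two agents gave the peptide MIC.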

E. coli [5] = type: cell-based, Escherichia coli; conditions: E. coli
Outline: as §3

E. coli [6] = test: MIC of antibiotic during combined treatment with antimicrobial peptide; type: cell-based, Escherichia coli; conditions: for Antibiotic MIC, Erythromycin / Antibiotic MIC, Linezolid / Antibiotic MIC, Vancomycin: E. coli
Outline: as §2

S. aureus = test: microbe, parasite or virus in culture; type: cell-based, Staphylococcus aureus
Outline: as §1

MDREC 1229 [7] = test: microbe, parasite or virus in culture; type: cell-based, Escherichia coli
Outline: as §1

E. coli [8] = test: microbe, parasite or virus in culture; type: cell-based, Escherichia coli; conditions: 16 h
Outline: as §1

MDRAB 12035 [9] = test: MIC of antimicrobial peptide during combined treatment with antibiotic; type: cell-based, Acinetobacter baumannii
Outline: as §3

A. baumannii [10] = test: as above; type: cell-based, Acinetobacter baumannii
Outline: as §3

P. aeruginosa = test: microbe, parasite or virus in culture; type: cell-based, Pseudomonas aeruginosa
Outline: as §1

[11] = combined with peptide at 1 μg/ml
[12] = combined with peptide at 2 μg/ml
[13] = combined with peptide at 4 μg/ml
[14] = combined with peptide at 6 μg/ml
[15] = combined with peptide at 8 μg/ml
[16] = combined with peptide at 16 μg/ml
[17] = combined with peptide at 32 μg/ml
[18] = combined with peptide at 64 μg/ml
[19] = linezolid 64 μg/ml (Conc./MIC 1/8)
[20] = linezolid 512 μg/ml (Conc./MIC 1)
[21] = vancomycin 512 μg/ml (Conc./MIC 1/2)
[22] = vancomycin 1024 μg/ml (Conc./MIC 1)
[23] = erythromycin 4 μg/ml (Conc./MIC 1/8)
[24] = erythromycin 8 μg/ml (Conc./MIC 1/4)
[25] = erythromycin 16 μg/ml (Conc./MIC 1/2)
[26] = erythromycin 32 μg/ml (Conc./MIC 1)

## CC[C@H](C)[C@H](NC(=O)[C@H](CCCCN)NC(=O)[C@H](Cc1c[nH]c2ccccc12)NC(=O)[C@@H](N)CCCNC(=N)N)C(=O)N[C@@H](Cc1ccccc1)C(=O)N[C@@H](CCCCN)C(=O)N[C@@H](CCCCN)C(=O)N[C@H](C(=O)N[C@H](CC(C)C)C(=O)N[C@@H](CCCCN)C(=O)N[C@@H](CC(C)C)C(=O)N[C@@H](CC(C)C)C(=O)N[C@@H](Cc1c[nH]cn1)C(=O)N[C@@H](CCC(=O)O)C(=O)N[C@@H](Cc1ccccc1)C(=O)N[C@@H](CCCCN)C(=O)N[C@@H](CCCCN)C(=O)N[C@@H](Cc1ccccc1)C(N)=O)[C@@H](C)CC [PapMA-23, RWK IFK KIl KLL HEF KKF-NH2] (H-RWKIFKKI[dL]KLLHEFKKF-NH2; N-terminus assumed)
MDRAB 12035 [1]
  Minimal inhibitory concentration MIC: 32 µg/mL (≈ 13.3 µM)
  Peptide MIC, peptide alone: 32 µg/mL
A. baumannii [2]
  Minimal inhibitory concentration MIC: 32 µg/mL (≈ 13.3 µM)
  Peptide MIC, peptide alone: 32 µg/mL
A. baumannii [2]; A. baumannii and S. typhimurium
  Antibacterial activity relative to PapMA-1: at least twice as high
S. epidermidis
  Minimal inhibitory concentration MIC: >128 µg/mL
B. subtilis
  Minimal inhibitory concentration MIC: >128 µg/mL
A. baumannii [3]; A. baumannii and MDRAB 12035
  Synergistic effect of antibacterial activity with existing antibiotics compared with PapMA-1: level similar to that of PapMA-1 peptide
A. baumannii [3]; [11]
  Antibiotic MIC, Erythromycin: 32 µg/mL
  Antibiotic MIC, Linezolid: >128 µg/mL
  Antibiotic MIC, Vancomycin: >128 µg/mL
A. baumannii [3]; [12]
  Antibiotic MIC, Erythromycin: 32 µg/mL
  Antibiotic MIC, Linezolid: >128 µg/mL
  Antibiotic MIC, Vancomycin: >128 µg/mL
A. baumannii [3]; [13]
  Antibiotic MIC, Erythromycin: 8 µg/mL
  Antibiotic MIC, Linezolid: 64 µg/mL
  Antibiotic MIC, Vancomycin: 64 µg/mL
A. baumannii [3]; [14]
  Antibiotic MIC, Erythromycin: 4 µg/mL
  Antibiotic MIC, Linezolid: 16 µg/mL
  Antibiotic MIC, Vancomycin: 32 µg/mL
A. baumannii [3]; [15]
  Antibiotic MIC, Erythromycin: 0.5 µg/mL
  Antibiotic MIC, Linezolid: 4 µg/mL
  Antibiotic MIC, Vancomycin: 8 µg/mL
A. baumannii [3]; [16]
  Antibiotic MIC, Erythromycin: 0.25 µg/mL
  Antibiotic MIC, Linezolid: 2 µg/mL
  Antibiotic MIC, Vancomycin: 4 µg/mL
A. baumannii [3]; [17]
  Antibiotic MIC, Erythromycin: 0 µg/mL
  Antibiotic MIC, Linezolid: 0 µg/mL
  Antibiotic MIC, Vancomycin: 0 µg/mL
A. baumannii [3]; [18]
  Antibiotic MIC, Erythromycin: 0 µg/mL
  Antibiotic MIC, Linezolid: 0 µg/mL
  Antibiotic MIC, Vancomycin: 0 µg/mL
MDRST 8009
  Minimal inhibitory concentration MIC: 32 µg/mL (≈ 13.3 µM)
MDREC 1229 [4]; erythromycin 32 μg/ml (Conc./MIC 1/8)
  Peptide MIC during treatment with antibiotic: 4 µg/mL
MDREC 1229 [4]; erythromycin 64 μg/ml (Conc./MIC 1/4)
  Peptide MIC during treatment with antibiotic: 2 µg/mL
MDREC 1229 [4]; erythromycin […] (Conc./MIC 1)
  Peptide MIC during treatment with antibiotic: 0 µg/mL
MDREC 1229 [4]; erythromycin […] (Conc./MIC 1/2)
  Peptide MIC during treatment with antibiotic: 1 µg/mL
MDREC 1229 [4]; [19]
  Peptide MIC during treatment with antibiotic: 4 µg/mL
MDREC 1229 [4]; [20]
  Peptide MIC during treatment with antibiotic: 0 µg/mL
MDREC 1229 [4]; linezolid […] (Conc./MIC 1/2)
  Peptide MIC during treatment with antibiotic: 1 µg/mL
MDREC 1229 [4]; linezolid […] (Conc./MIC 1/4)
  Peptide MIC during treatment with antibiotic: 2 µg/mL
MDREC 1229 [4]; [21]
  Peptide MIC during treatment with antibiotic: 2 µg/mL
MDREC 1229 [4]; [22]
  Peptide MIC during treatment with antibiotic: 1 µg/mL
MDREC 1229 [4]; vancomycin […] (Conc./MIC 1/4)
  Peptide MIC during treatment with antibiotic: 4 µg/mL
MDREC 1229 [4]; vancomycin […] (Conc./MIC 1/8)
  Peptide MIC during treatment with antibiotic: 8 µg/mL
E. coli [5]; with Erythromycin […] (Conc./MIC 1)
  Peptide MIC: 0 µg/mL
E. coli [5]; with Linezolid […] (Conc./MIC 1)
  Peptide MIC: 0 µg/mL
E. coli [5]; with Vancomycin 1024 μg/ml (Conc./MIC 1)
  Peptide MIC: 0 µg/mL
E. coli [6]; E. coli and MDREC1229
  Synergistic effect of antibacterial activity with existing antibiotics compared with PapMA-1: level similar to that of the PapMA-1 peptide
E. coli [6]; erythromycin combined with peptide at 1 μg/ml
  Antibiotic MIC, Erythromycin: 128 µg/mL
E. coli [6]; erythromycin combined with peptide at 2 μg/ml
  Antibiotic MIC, Erythromycin: 64 µg/mL
E. coli [6]; erythromycin combined with peptide at 4 μg/ml
  Antibiotic MIC, Erythromycin: 16 µg/mL
E. coli [6]; erythromycin combined with peptide at 6 μg/ml
  Antibiotic MIC, Erythromycin: 4 µg/mL
E. coli [6]; erythromycin combined with peptide at 8 μg/ml
  Antibiotic MIC, Erythromycin: 2 µg/mL
E. coli [6]; erythromycin combined with peptide at 16 μg/ml
  Antibiotic MIC, Erythromycin: 0.5 µg/mL
E. coli [6]; erythromycin combined with peptide at 32 μg/ml
  Antibiotic MIC, Erythromycin: 0 µg/mL
E. coli [6]; erythromycin combined with peptide at 64 μg/ml
  Antibiotic MIC, Erythromycin: 0 µg/mL
E. coli [6]; linezolid combined with peptide at 1 μg/ml
  Antibiotic MIC, Linezolid: >128 µg/mL
E. coli [6]; linezolid combined with peptide at 2 μg/ml
  Antibiotic MIC, Linezolid: 128 µg/mL
E. coli [6]; linezolid combined with peptide at 4 μg/ml
  Antibiotic MIC, Linezolid: 64 µg/mL
E. coli [6]; linezolid combined with peptide at 6 μg/ml
  Antibiotic MIC, Linezolid: 32 µg/mL
E. coli [6]; linezolid combined with peptide at 8 μg/ml
  Antibiotic MIC, Linezolid: 16 µg/mL
E. coli [6]; linezolid combined with peptide at 16 μg/ml
  Antibiotic MIC, Linezolid: 16 µg/mL
E. coli [6]; linezolid combined with peptide at 32 μg/ml
  Antibiotic MIC, Linezolid: 0 µg/mL
E. coli [6]; linezolid combined with peptide at 64 μg/ml
  Antibiotic MIC, Linezolid: 0 µg/mL
E. coli [6]; vancomycin combined with peptide at 1 μg/ml
  Antibiotic MIC, Vancomycin: >128 µg/mL
E. coli [6]; vancomycin combined with peptide at 2 μg/ml
  Antibiotic MIC, Vancomycin: >128 µg/mL
E. coli [6]; vancomycin combined with peptide at 4 μg/ml
  Antibiotic MIC, Vancomycin: >128 µg/mL
E. coli [6]; vancomycin combined with peptide at 6 μg/ml
  Antibiotic MIC, Vancomycin: 64 µg/mL
E. coli [6]; vancomycin combined with peptide at 8 μg/ml
  Antibiotic MIC, Vancomycin: 16 µg/mL
E. coli [6]; vancomycin combined with peptide at 16 μg/ml
  Antibiotic MIC, Vancomycin: 8 µg/mL
E. coli [6]; vancomycin combined with peptide at 32 μg/ml
  Antibiotic MIC, Vancomycin: 0 µg/mL
E. coli [6]; vancomycin combined with peptide at 64 μg/ml
  Antibiotic MIC, Vancomycin: 0 µg/mL
S. aureus
  Minimal inhibitory concentration MIC: >128 µg/mL
MDREC 1229 [7]
  Minimal inhibitory concentration MIC: 32 µg/mL (≈ 13.3 µM)
  Peptide MIC, peptide alone: 32 µg/mL
E. coli [8]
  Minimal inhibitory concentration MIC: 32 µg/mL (≈ 13.3 µM)
MDRAB 12035 [9]; [23]
  Peptide MIC during treatment with erythromycin: 8 µg/mL
MDRAB 12035 [9]; [24]
  Peptide MIC during treatment with erythromycin: 8 µg/mL
MDRAB 12035 [9]; [25]
  Peptide MIC during treatment with erythromycin: 4 µg/mL
MDRAB 12035 [9]; [26]
  Peptide MIC during treatment with erythromycin: 0 µg/mL
MDRAB 12035 [9]; [19]
  Peptide MIC during treatment with linezolid: 4 µg/mL
MDRAB 12035 [9]; [20]
  Peptide MIC during treatment with linezolid: 0 µg/mL
MDRAB 12035 [9]; linezolid […] (Conc./MIC 1/2)
  Peptide MIC during treatment with linezolid: 1 µg/mL
MDRAB 12035 [9]; linezolid […] (Conc./MIC 1/4)
  Peptide MIC during treatment with linezolid: 4 µg/mL
MDRAB 12035 [9]; [21]
  Peptide MIC during treatment with vancomycin: 2 µg/mL
MDRAB 12035 [9]; [22]
  Peptide MIC during treatment with vancomycin: 1 µg/mL
MDRAB 12035 [9]; vancomycin […] (Conc./MIC 1/4)
  Peptide MIC during treatment with vancomycin: 4 µg/mL
MDRAB 12035 [9]; vancomycin […] (Conc./MIC 1/8)
  Peptide MIC during treatment with vancomycin: 4 µg/mL
A. baumannii [10]; [23]
  Peptide MIC during treatment with erythromycin: 8 µg/mL
A. baumannii [10]; [24]
  Peptide MIC during treatment with erythromycin: 4 µg/mL
A. baumannii [10]; [25]
  Peptide MIC during treatment with erythromycin: 4 µg/mL
A. baumannii [10]; [26]
  Peptide MIC during treatment with erythromycin: 0 µg/mL
A. baumannii [10]; linezolid 32 μg/ml (Conc./MIC 1/8)
  Peptide MIC during treatment with linezolid: 8 µg/mL
A. baumannii [10]; linezolid 64 μg/ml (Conc./MIC 1/4)
  Peptide MIC during treatment with linezolid: 4 µg/mL
A. baumannii [10]; linezolid […] (Conc./MIC 1)
  Peptide MIC during treatment with linezolid: 0 µg/mL
A. baumannii [10]; linezolid […] (Conc./MIC 1/2)
  Peptide MIC during treatment with linezolid: 1 µg/mL
A. baumannii [10]; [21]
  Peptide MIC during treatment with vancomycin: 0.25 µg/mL
A. baumannii [10]; [22]
  Peptide MIC during treatment with vancomycin: 0 µg/mL
A. baumannii [10]; vancomycin […] (Conc./MIC 1/4)
  Peptide MIC during treatment with vancomycin: 0.5 µg/mL
A. baumannii [10]; vancomycin […] (Conc./MIC 1/8)
  Peptide MIC during treatment with vancomycin: 4 µg/mL
P. aeruginosa
  Minimal inhibitory concentration MIC: 64 µg/mL (≈ 26.6 µM)
